Experimental data taken from PMC11436758, “Computer-aided drug design to generate a unique antibiotic family” (Nature Communications, 2024).
≈ marks a conversion by molar mass, not a printed value.

What was measured:
Test in all cases: MIC, clinical and laboratory strains
Format in all cases: cell-based
[1] = system: S. epidermidis (MSSE)
Description: (§1) The medium employed for the assay was Mueller Hinton II Broth (MHB II; Becton-Dickinson, Sparks, MD, USA). Agar plates used for the organisms were trypticase soy agar plus 5% sheep blood (BD; Sparks, MD, USA). MIC assay plates were prepared using the CLSI broth microdilution procedure. Automated liquid handlers (Multidrop 384, Biomek 2000 and Biomek FX) were used to conduct serial dilutions and liquid transfers. A standardized inoculum of each organism was prepared per CLSI methods. Suspensions were prepared to equal a 0.5 McFarland standard, followed by a 1:20 dilution in test media. The inocula were dispensed into sterile reservoirs divided by length (Beckman Colter) and the Biomek 2000 was used to inoculate the plates. Daughter plates were placed on the Biomek 2000 work surface in reverse orientation so that inoculation took place from low to high drug concentration. The Biomek 2000 delivered 10 μL of the diluted suspension into each well. These inoculations yielded a final cell concentration in the daughter plates of ~5 × 10^5 colony-forming units/mL in each well. The wells of the daughter plates ultimately contained 185 μL of broth, 5 μL of drug solution, and 10 μL of bacterial inoculum. Plates were covered with a sterile lid on the top plate, placed in plastic bags, and incubated at 35 °C for ~18 h. The microplates were viewed from the bottom using a plate viewer and the MIC was read. The MIC was recorded as the lowest concentration of drug that inhibited visible growth of the organism.

[2] = system: S. aureus (VISA)
Description: as §1

[3] = system: S. epidermidis (MRSE)
Description: as §1

[4] = system: S. epidermidis (VISE)
Description: as §1

[5] = system: S. aureus (MSSA)
Description: as §1

[6] = system: S. aureus (MRSA)
Description: as §1

How did the MIC ([1]; S. epidermidis (MSSE) 3234) turn out when `CC(C)c1cc(Cl)ccc1-c1cc(-c2nnn[nH]2)c(-c2ccc(Cl)cc2C(C)C)s1` [DNM0547] was run?
The MIC was 4 µg/mL (≈ 8.74 µM).

What about the MIC ([1]; S. epidermidis (MSSE) 3602) of the same compound?
The MIC was 2 µg/mL (≈ 4.37 µM).

And the MIC ([1]; S. epidermidis (MSSE) 3609)?
Its MIC is 4 µg/mL (≈ 8.74 µM).

What about the MIC ([1]; S. epidermidis (MSSE) 3617) of the same compound?
The MIC was 1 µg/mL (≈ 2.19 µM).

And the MIC ([1]; S. epidermidis (MSSE) 3620)?
Its MIC is 2 µg/mL (≈ 4.37 µM).

What about the MIC ([1]; S. epidermidis (MSSE) 3621) of the same compound?
The MIC was 1 µg/mL (≈ 2.19 µM).

What about the MIC ([2]; S. aureus (VISA) 1724) of the same compound?
Its MIC is 2 µg/mL (≈ 4.37 µM).

What about the MIC ([2]; S. aureus (VISA) 2012) of the same compound?
Its MIC is 2 µg/mL (≈ 4.37 µM).

What about the MIC ([2]; S. aureus (VISA) 2013) of the same compound?
Its MIC is 2 µg/mL (≈ 4.37 µM).

What about the MIC ([2]; S. aureus (VISA) 2014) of the same compound?
Its MIC is 2 µg/mL (≈ 4.37 µM).

What about the MIC ([2]; S. aureus (VISA) 2015) of the same compound?
The MIC was 2 µg/mL (≈ 4.37 µM).

What about the MIC ([2]; S. aureus (VISA) 2016) of the same compound?
Its MIC is 2 µg/mL (≈ 4.37 µM).

What about the MIC ([2]; S. aureus (VISA) 2017) of the same compound?
The MIC was 2 µg/mL (≈ 4.37 µM).

What about the MIC ([2]; S. aureus (VISA) 2018) of the same compound?
The MIC was 2 µg/mL (≈ 4.37 µM).

And the MIC ([2]; S. aureus (VISA) 2019)?
Its MIC is 1 µg/mL (≈ 2.19 µM).

What about the MIC ([2]; S. aureus (VISA) 2123) of the same compound?
The MIC was 2 µg/mL (≈ 4.37 µM).

And the MIC ([2]; S. aureus (VISA) NRS1/1723)?
The MIC was 2 µg/mL (≈ 4.37 µM).

What about the MIC ([3]; S. epidermidis (MRSE) 3679) of the same compound?
The MIC was 2 µg/mL (≈ 4.37 µM).

And the MIC ([3]; S. epidermidis (MRSE) 3680)?
Its MIC is 2 µg/mL (≈ 4.37 µM).

And the MIC ([3]; S. epidermidis (MRSE) 3681)?
The MIC was 1 µg/mL (≈ 2.19 µM).

And the MIC ([3]; S. epidermidis (MRSE) 3683)?
Its MIC is 2 µg/mL (≈ 4.37 µM).

And the MIC ([3]; S. epidermidis (MRSE) 3745)?
Its MIC is 8 µg/mL (≈ 17.5 µM).

What about the MIC ([3]; S. epidermidis (MRSE) 3746) of the same compound?
Its MIC is 2 µg/mL (≈ 4.37 µM).

What about the MIC ([3]; S. epidermidis (MRSE) 3747) of the same compound?
The MIC was 2 µg/mL (≈ 4.37 µM).

And the MIC ([4]; S. epidermidis (VISE) 2020)?
Its MIC is 8 µg/mL (≈ 17.5 µM).

What about the MIC ([4]; S. epidermidis (VISE) 2021) of the same compound?
Its MIC is 1 µg/mL (≈ 2.19 µM).

And the MIC ([4]; S. epidermidis (VISE) 2022)?
Its MIC is 2 µg/mL (≈ 4.37 µM).

What about the MIC ([4]; S. epidermidis (VISE) 2023) of the same compound?
Its MIC is 4 µg/mL (≈ 8.74 µM).

And the MIC ([4]; S. epidermidis (VISE) 2024)?
Its MIC is 32 µg/mL (≈ 70 µM).

What about the MIC ([4]; S. epidermidis (VISE) 2025) of the same compound?
The MIC was 4 µg/mL (≈ 8.74 µM).

What about the MIC ([5]; S. aureus (MSSA) 2127) of the same compound?
Its MIC is 1 µg/mL (≈ 2.19 µM).

What about the MIC ([5]; S. aureus (MSSA) 6167) of the same compound?
The MIC was 2 µg/mL (≈ 4.37 µM).

And the MIC ([5]; S. aureus (MSSA) 6168)?
The MIC was 1 µg/mL (≈ 2.19 µM).

What about the MIC ([5]; S. aureus (MSSA) 6170) of the same compound?
Its MIC is 1 µg/mL (≈ 2.19 µM).

What about the MIC ([5]; S. aureus (MSSA) 6316) of the same compound?
Its MIC is 2 µg/mL (≈ 4.37 µM).

And the MIC ([5]; S. aureus (MSSA) 6317)?
Its MIC is 1 µg/mL (≈ 2.19 µM).

What about the MIC ([5]; S. aureus (MSSA) 6318) of the same compound?
The MIC was 1 µg/mL (≈ 2.19 µM).

What about the MIC ([5]; S. aureus (MSSA) 6499) of the same compound?
Its MIC is 2 µg/mL (≈ 4.37 µM).

What about the MIC ([5]; S. aureus (MSSA) 6500) of the same compound?
The MIC was 1 µg/mL (≈ 2.19 µM).

What about the MIC ([5]; S. aureus (MSSA) 6502) of the same compound?
The MIC was 1 µg/mL (≈ 2.19 µM).

And the MIC ([6]; S. aureus (MRSA) 2167)?
Its MIC is 1 µg/mL (≈ 2.19 µM).

What about the MIC ([6]; S. aureus (MRSA) 2168) of the same compound?
Its MIC is 1 µg/mL (≈ 2.19 µM).

And the MIC ([6]; S. aureus (MRSA) 2169)?
Its MIC is 2 µg/mL (≈ 4.37 µM).

And the MIC ([6]; S. aureus (MRSA) 2170)?
The MIC was 1 µg/mL (≈ 2.19 µM).

And the MIC ([6]; S. aureus (MRSA) 2171)?
Its MIC is 1 µg/mL (≈ 2.19 µM).

What about the MIC ([6]; S. aureus (MRSA) 2293) of the same compound?
Its MIC is 2 µg/mL (≈ 4.37 µM).

What about the MIC ([6]; S. aureus (MRSA) 2294) of the same compound?
The MIC was 1 µg/mL (≈ 2.19 µM).

What about the MIC ([6]; S. aureus (MRSA) 2295) of the same compound?
Its MIC is 1 µg/mL (≈ 2.19 µM).

And the MIC ([6]; S. aureus (MRSA) 2296)?
The MIC was 1 µg/mL (≈ 2.19 µM).

What about the MIC ([6]; S. aureus (MRSA) 2297) of the same compound?
The MIC was 2 µg/mL (≈ 4.37 µM).

And the MIC ([6]; S. aureus (MRSA) 3880)?
The MIC was 1 µg/mL (≈ 2.19 µM).

And the MIC ([6]; S. aureus (MRSA) 5373)?
The MIC was 1 µg/mL (≈ 2.19 µM).

And the MIC ([6]; S. aureus (MRSA) 5666)?
Its MIC is 1 µg/mL (≈ 2.19 µM).

And the MIC ([6]; S. aureus (MRSA) 5702)?
Its MIC is 1 µg/mL (≈ 2.19 µM).

What about the MIC ([6]; S. aureus (MRSA) 5999) of the same compound?
The MIC was 1 µg/mL (≈ 2.19 µM).

What about the MIC ([6]; S. aureus (MRSA) 6165) of the same compound?
Its MIC is 1 µg/mL (≈ 2.19 µM).

And the MIC ([6]; S. aureus (MRSA) 6169)?
Its MIC is 1 µg/mL (≈ 2.19 µM).

And the MIC ([6]; S. aureus (MRSA) 6174)?
The MIC was 1 µg/mL (≈ 2.19 µM).

And the MIC ([6]; S. aureus (MRSA) 6311)?
The MIC was 1 µg/mL (≈ 2.19 µM).

And the MIC ([6]; S. aureus (MRSA) 6312)?
Its MIC is 2 µg/mL (≈ 4.37 µM).
